Laboratory results from patent US11974992B2, “Use of serotonin 5-HT1A receptor agonists to treat diseases associated with sudden unexpected death in epilepsy” (Neurolixis, priority 2022, dated 2024).
Entries after “also recorded” stand apart in the source; their conditions may differ.

Tests used:
humans = settings: cited from earlier work
wild-type male CF-1 mice = assay: Seizures induced by corneal electrical stimulation (CES, 6 Hz, 44 mA); type: in vivo, mouse
Method: Seizures Induced by Corneal Electrical Stimulation (CES) in Wild-Type Mice
Experiments were carried out in accordance with the National Institute of Neurological Disorders and Stroke (NINDS) Epilepsy Therapy Screening Program (https://panache.ninds.nih.gov/TestDescription/Test6HZ). The CES test was carried out using wild-type male CF-1 mice. Seizures were induced by a low frequency (6 Hz, 0.2 msec rectangular pulse), long-duration (3 sec), 44 mA current (double the current producing seizures in 97% of animals) delivered through corneal electrodes (Barton M E, Klein B D, Wolf H H, White H S. Pharmacological characterization of the 6 Hz psychomotor seizure model of partial epilepsy. Epilepsy Res. 2001; 47:217-27). A drop of 0.5% tetracaine hydrochloride in 0.9% saline (anesthetic/electrolyte) solution was applied to the eyes just prior to the placement of corneal electrodes. The seizure in mice is characterized by an initial momentary stun followed immediately by jaw clonus, forelimb clonus, twitching of the vibrissae, and “Straub tail”. Animals not displaying this behavior within the one-minute observation period are considered “protected” from seizures.
Testing for anti-seizure activity in the CES model was performed with 4 male mice/dose/time point. […] of NLX-101 (0.02, 0.06, 0.5, 1 and 2 mg/kg i.p.) and two timepoints (30 and 120 min after drug administration) were tested.

wild-type male mice = assay: Maximal electroshock seizure (MES) test; type: in vivo, mouse; settings: 0.02 to 2 mg/kg i.p., 30 and 120 min post-injection
Method: Seizures Induced in the Maximal Electroshock Seizure (MES) Test
Experiments were carried out in accordance with the National Institute of Neurological Disorders and Stroke (NINDS) Epilepsy Therapy Screening Program (https://panache.ninds.nih.gov/TestDescription/TestMES). The MES test was carried out using wild-type male mice. MES is a model for generalized tonic-clonic seizures and provides an indication of a compound's ability to prevent seizure spread when all neuronal circuits in the brain are maximally active (White H S, Johnson M, Wolf H H, Kupferberg H J. The early identification of anticonvulsant activity: role of the maximal electroshock and subcutaneous pentylenetetrazol seizure models. Ital J Neurol sci. 1995; 16:73-7). These seizures are highly reproducible and are electrophysiologically consistent with human seizures. Seizures were induced by a high frequency (60 Hz) of alternating current at 50 mA over a short duration (0.2 sec) delivered through corneal electrodes. Prior to stimulation, corneas were irrigated with 0.5% tetracaine hydrochloride for local anesthesia and 0.9% saline to improve electrical conductivity. Seizures induced by MES are characterized by tonic extension of forelimbs and hindlimbs that is followed by brief episodes of clonic activity of the forelimbs and hindlimbs. […]

[1] = test system: mouse model of the Rett syndrome; settings: cited from earlier work
FMR1 knock-out (KO) mice = assay: Audiogenic tonic-clonic seizures (TCS) in FMR1 transgenic mice; type: in vivo, mouse
Method: Audiogenic Tonic-Clonic Seizures (TCS) in FMR1 Transgenic Mice
FMR1 knock-out (KO) mice were bred and weaned at postnatal day 21 (P21), and all mice were tested between P21 to P23. NLX-101 was administered at doses of 0.6, 1.2, 1.8 and 2.4 mg/kg i.p. Control FMR1 KO mice received saline. NLX-101 or saline was injected 10 min before subjecting the mice to the auditory stimulus.
To differentiate each mouse for post-hoc video analysis, mice were color coded prior to drug or saline administration. Mice (up to 4/cage) were then put in a cage with a lid; after 10 min, a speaker was placed on top of the lid, and the cage placed in a sound attenuation booth (Gretch-Ken Inc., OR); the auditory stimulus was a continuously alternating up and down frequency modulated sweep with frequencies between 2-8 kHz, presented at an intensity between 105-110 dB for 15 min. The procedure lasted a total of 20 min starting with 5 min of habituation (without a sound stimulus). The full 20-min procedure was video recorded for off-line analysis.
The typical behavior of FMR1 knock-out mice subjected to loud audio stimulus includes tonic-clonic seizures (TCS: the mouse lays on the cage bottom with hindlimb extension), and death by respiratory arrest (manifested by a deep respiratory gasp and relaxation of pinna).
The latency time (from the stimulus onset) to the occurrence of TCS and death were recorded with a stopwatch (precision: 1 sec). Survival analysis was used to analyze the probability of TCS or death by log-rank test.

N#Cc1ccc2[nH]cc(CCCCN3CCN(c4ccc5oc(C(N)=O)cc5c4)CC3)c2c1 [vilazodone]
seizures in humans (humans): induces seizures

Cc1cnc(CNCC2(F)CCN(C(=O)c3ccc(F)c(Cl)c3)CC2)nc1 [NLX-101]
anti-seizure activity in the CES test (wild-type male CF-1 mice; 0.02 to 2 mg/kg i.p., 30 and 120 min): did not exhibit any anti-seizure activity | mice with reduced seizure occurrence in the CES test (wild-type male CF-1 mice; highest dose tested (2 mg/kg i.p.), 30 min post injection): 1 out of 4 | occurrence of seizures in the MES test (wild-type male mice): did not exhibit any anti-seizure activity; also recorded: did not affect the occurrence of seizures | respiratory abnormalities [1]: improves the respiratory abnormalities | number of FMR1 knock-out mice that died (FMR1 knock-out (KO) mice; 0.6-2.4 mg/kg i.p., 10 min before auditory stimulus, significant effects at 1.2, 1.8 and 2.4 mg/kg): dose-dependently reduced | percentage of FMR1 knock-out mice displaying tonic-clonic seizures (FMR1 knock-out (KO) mice; 0.6-2.4 mg/kg i.p., 10 min before auditory stimulus, significant effects at 1.8 and 2.4 mg/kg): potently and efficaciously reduced seizures; also recorded: dose-dependently reduced | mice protected from death (FMR1 knock-out (KO) mice; audiogenic tonic-clonic seizure model in FMR1 knock-out mice): over 75%
